# Structures can show the parent of a compound that is named as a salt. Where two headings read alike, the source gives them in different places.
# Experiments:
# [1] = system: Lacticaseibacillus rhamnosus DY801; test: Antibiotic sensitivity by broth trace-dilution method (MIC); format: cell-based; settings: for MIC: Lacticaseibacillus rhamnosus, read-out: Detected MIC; for Determination of the reading: sensitivity of DY801 to the antibiotic according to the General Standard
# Experimental: In the present example, the sensitivity of Lacticaseibacillus rhamnosus DY801 against eight antibiotics was tested using the broth trace-dilution method according to “the General Standard of Probiotics for Food Use” (hereinafter referred as General Standard) published by the Chinese Institute of Food Science and Technology. The eight antibiotics were: tetracycline, streptomycin, ciprofloxacin hydrochloride, clindamycin, vancomycin, chloramphenicol, ampicillin and gentamicin. […] The minimum inhibitory concentration (hereinafter referred as MIC) of Lacticaseibacillus rhamnosus DY801 for each antibiotic was read after 48 hours. The strain thereof was determined to be sensitive(S), intermediate (I), resistant (R) and not required (n.r.) for the antibiotic according to the bacterial resistance criteria provided in the General Standard, and the results are shown in Table 2.
# [2] = system: Lacticaseibacillus rhamnosus DY801; settings: bacterial resistance criteria of the General Standard of Probiotics for Food Use; cited from earlier work
# [3] = DY801 suspension 1×10^8 CFU/mL, anaerobic 37° C., read after 48 hours
Compound,"MIC ([1]; DY801, 48 h)","MIC [1, 3]","Detected MIC [1, 3]",Determination of the reading [1],MIC in the General Standard [2]
CN[C@H](CC(C)C)C(=O)N[C@H]1C(=O)N[C@@H](CC(N)=O)C(=O)N[C@H]2C(=O)N[C@H]3C(=O)N[C@H](C(=O)N[C@H](C(=O)O)c4cc(O)cc(O)c4-c4cc3ccc4O)[C@H](O)c3ccc(c(Cl)c3)Oc3cc2cc(c3O[C@@H]2O[C@H](CO)[C@@H](O)[C@H](O)[C@H]2O[C@H]2C[C@](C)(N)[C@H](O)[C@H](C)O2)Oc2ccc(cc2Cl)[C@H]1O [vancomycin],64 µg/mL,–,–,–,–
O=C(O)c1cn(C2CC2)c2cc(N3CCNCC3)c(F)cc2c1=O [ciprofloxacin hydrochloride],–,64 µg/mL,–,–,–
gentamicin [gentamycin],–,–,16 µg/mL,S,16 µg/mL
CCC[C@@H]1C[C@@H](C(=O)N[C@@H]([C@H]2O[C@H](SC)[C@H](O)[C@@H](O)[C@H]2O)[C@H](C)Cl)N(C)C1 [clindamycin],–,4 µg/mL,4 µg/mL,S,–
[H]/N=C(/N)N[C@H]1[C@H](O)[C@@H](O)[C@H](O[C@@H]2O[C@@H](C)[C@](O)(C=O)[C@H]2O[C@@H]2O[C@@H](CO)[C@H](O)[C@@H](O)[C@@H]2NC)[C@@H](N/C(N)=N\[H])[C@@H]1O [streptomycin],–,32 µg/mL,–,S,32 µg/mL
"O=C(N[C@H](CO)[C@H](O)c1ccc([N+](=O)[O-])cc1)C(Cl)Cl [chloromycetin, chloramphenicol]",–,–,2 µg/mL,S,4 µg/mL
CN(C)[C@@H]1C(O)=C(C(N)=O)C(=O)[C@@]2(O)C(O)=C3C(=O)c4c(O)cccc4[C@@](C)(O)[C@H]3C[C@@H]12 [tetracycline],–,8 µg/mL,–,S,–
CC1(C)S[C@@H]2[C@H](NC(=O)[C@H](N)c3ccccc3)C(=O)N2[C@H]1C(=O)O [ampicillin],–,4 µg/mL,–,S,4 µg/mL
